Here are results for twelve compounds from patent US10774122B2, “ERG targeted therapy” (The Regents of the University of Michigan, priority 2017, dated 2020).

Read-outs that look alike come from different tables or passages of the source. Where a SMILES comes first, the peptide text is derived from it. Where no end group is shown, it is not given here. [ ]: non-standard residue; d: D form. Some results are limits rather than exact numbers.

For series [1], the system named is VCaP (ERG fusion-positive) xenografts. Description: VCaP xenograft mouse model, tumor growth. The following applies: 20 mg/kg dose, p<0.01.
Description: Athymic Nude-Foxnlnu male mice were procured from Harlan Laboratories, Inc (Indianapolis, Ind.). All procedures involving mice were approved by the University Committee on Use and Care of Animals (UCUCA) at the University of Michigan and conformed to their relevant regulatory standards. […] Statistical significance for Kaplan-Meier analysis was determined by the log-rank (Mantel-Cox) test.
Athymic Nude-Foxnlnu male mice were procured from Harlan Laboratories, Inc. (Indianapolis, Ind.). VCaP (2×10^6 cells) or PC3 (5×10^5 cells) were resuspended in 100 μl of saline with 50% Matrigel (BD Biosciences, Becton Drive, NJ) and implanted subcutaneously into the flank regions on both sides of the mice. Mice were anesthetized using a cocktail of xylazine (80-120 mg/kg, IP) and ketamine (10 mg/kg, IP) for chemical restraint before tumor cells implantation. For short term assays, all tumors were staged for three weeks before starting peptidomimetic treatment. After week 3 (VCaP cells) or 12 days (PC3 cells), mice (10 per treatment group) were treated with peptidomimetics (25 mg/kg or 10 mg/kg as indicated, IP) daily five times a week.
Tumor growth was recorded every three days using digital calipers and tumor volumes were calculated using the formula (π/6) (L×W2), where L=length of tumor and W=width. Body weight was monitored weekly over the course of the study. At the end of the xenograft studies, mice were anaesthetized and blood was collected by cardiac puncture and tumors were preserved for further biochemical and immunofluorescence analysis. […] Survival analysis was carried out using the GraphPad Prism 4.0 software (GraphPad Software, San Diego, Calif.). Statistical significance for Kaplan-Meier analysis was determined by the log-rank (Mantel-Cox) test. All procedures involving mice were approved by the University Committee on Use and Care of Animals (UCUCA) at the University of Michigan and conform to their relevant regulatory standards.
Series [2] addresses T1, ERG (Homo sapiens, UniProt P11308).
T1 sequence (P11308 1-479): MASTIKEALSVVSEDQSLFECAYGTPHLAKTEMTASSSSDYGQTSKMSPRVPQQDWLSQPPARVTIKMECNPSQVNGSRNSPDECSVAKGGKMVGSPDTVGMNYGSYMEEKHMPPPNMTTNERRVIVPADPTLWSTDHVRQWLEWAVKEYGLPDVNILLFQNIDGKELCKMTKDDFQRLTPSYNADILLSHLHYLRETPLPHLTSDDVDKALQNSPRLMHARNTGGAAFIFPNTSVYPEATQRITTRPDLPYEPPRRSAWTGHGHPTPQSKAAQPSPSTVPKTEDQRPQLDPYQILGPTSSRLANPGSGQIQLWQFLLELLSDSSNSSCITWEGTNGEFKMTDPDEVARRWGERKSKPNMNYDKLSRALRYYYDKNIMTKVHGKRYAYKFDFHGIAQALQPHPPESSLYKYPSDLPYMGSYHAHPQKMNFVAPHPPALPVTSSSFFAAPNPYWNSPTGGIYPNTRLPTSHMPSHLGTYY
The experiment in a line: ERG:peptide binding by biolayer interferometry (OctetRED). The conditions noted are these: for binding to ERG: OctetRED, result in words.
Description: The interaction coefficients between ERG and synthetic peptides or peptidomimetics were determined by biolayer interferometry technology using the Octet Red system (ForteBio). Purified ERG and GUS proteins were biotinylated by EZLink NHS-PEG4 Biotinylation Kit (Thermo Scientific) following the manufacturer's protocol and any unincorporated biotin was removed from the reactions with Zeba 2 ml desalt columns (Thermo). Biotinylated proteins (500 μg/ml) were then incubated with super streptavidin biosensors in binding buffer (20 mM HEPES pH 7.4, 150 mM NaCl), blocked with 10 μg/ml biocytin and washed three times in binding buffer. Peptides were serially diluted in binding buffer, mixed with the protein-coupled biosensors and peptidomimetic:protein association/dissociation was monitored for 10 min at 25° C. Nonspecific binding from the signal obtained from peptidomimetic:GUS interactions was subtracted from that of peptidomimetic:ERG interactions and baseline signal drift was controlled by monitoring immobilized ERG without peptide. Octet Red analysis software was used to analyze the data.

For series [3], the target named is T2, ERG (Homo sapiens, UniProt P11308).
T2 construct: cDNAs encoding full-length ERG and GUS were cloned into pDEST10 vector; His; made in house; host or cells: SF9 insect cells (Bac-to-Bac baculovirus)
Description: Kd[μM]. From the text:
Table printed on a drawing sheet, FIG. 13
Head of the field: Kd[μM]
Where the first naming reader finds the target: passage: Capping of the EIP1 peptide at both the N- and C-terminus abolished binding to ERG (FIG. 13).

The target of series [4] is T2, ERG. The experiment in a line: Kd[μM]. From the text: Table printed on a drawing sheet, FIG. 14 Head of the field: Kd[μM] […] Where the first naming reader finds the target: passage: the importance of the PYL residues for binding to ERG was identified
The source holds these as a separate data set.

Series [5] concerns the target T3, ERG:AR interaction (Homo sapiens, UniProt P11308).
T3 sequence (P11308 1-479): T1 sequence (P11308 1-479)
Description: In vitro peptide competitive pull-down assay (cell-free). The following applies: Halo-ERG with recombinant AR, increasing peptide concentrations.
Description: (§1) Halo-ERG fusion protein was expressed using in vitro transcription/translation system as described above. […] Protein mixtures were incubated with or without the peptides in PBS-T (0.1% Tween) at 4° C. overnight. Simultaneously, HaloLink beads (Promega) were blocked in 5% BSA at 4° C. overnight. The next day 10 μl of HaloLink beads were mixed with the protein-peptide mixture, incubated at RT for 1 hour, washed with 4× in PBS-T and eluted into SDS sample buffer. […] HaloLink beads without incubation with fusion proteins were used as negative controls.

Series [6] addresses T4, ERG:DNA-PKcs interaction (Homo sapiens, UniProt P11308).
T4 sequence (P11308 1-479): T1 sequence (P11308 1-479)
The description is as above. The following applies: Halo-ERG with purified DNA-PKcs, increasing peptide concentrations.
Description: as §1

For series [7], the target named is ERG:AR interaction (Homo sapiens, UniProt P11308). The experiment in a line: IP-Western blot in VCaP cells.
Description: (§2) VCaP cells were seeded in 6-well plates at 0.5×10^6 cells/ml and after allowing cells to attach, cells were harvested and homogenized in NP40 lysis buffer (Sigma) containing a complete protease inhibitor cocktail (Roche). Ten micrograms of each protein extract was boiled in SDS sample buffer, size fractionated by SDS-PAGE, and transferred onto a PVDF membrane (GE Healthcare). […] Following three washes in TBS-T, the blots were incubated with horseradish peroxidase conjugated secondary antibody and the signals visualized by enhanced chemiluminescence system according to manufacturer's instructions (GE Healthcare).
(§3) Cell pellets or tumors treated with or without the peptidomimetics were lysed in cell lysis buffer (20 mM MOPS, pH 7.0, 2 mM EGTA, 5 mM EDTA, 30 mM sodium fluoride, 60 mM β-glycerophosphate, 20 mM sodium pyrophosphate, 1 mM sodium orthovanadate, 1% Triton X-100, 1 mM DTT, protease inhibitor cocktail (Roche)). Cell lysates (0.5-1.0 mg) were pre-cleaned with protein A/G agarose beads (Santa Cruz) by incubation for 1 hour with shaking at 4° C. followed by centrifugation at 2000 rpm for 3 minute. Lysates were then incubated with 2 μg ERG antibody (Santa Cruz, C-17) at 4° C. for 4 hours with shaking prior to addition of 20 μl protein A/G agarose beads and incubated at 4° C. overnight. […] Samples were then analyzed by SDS-PAGE and Western blot analysis as described above.
For series [8], the target named is T5, ERG:DNA-PKcs interaction (Homo sapiens, UniProt P11308).
T5 sequence (P11308 33-479 limits assumed): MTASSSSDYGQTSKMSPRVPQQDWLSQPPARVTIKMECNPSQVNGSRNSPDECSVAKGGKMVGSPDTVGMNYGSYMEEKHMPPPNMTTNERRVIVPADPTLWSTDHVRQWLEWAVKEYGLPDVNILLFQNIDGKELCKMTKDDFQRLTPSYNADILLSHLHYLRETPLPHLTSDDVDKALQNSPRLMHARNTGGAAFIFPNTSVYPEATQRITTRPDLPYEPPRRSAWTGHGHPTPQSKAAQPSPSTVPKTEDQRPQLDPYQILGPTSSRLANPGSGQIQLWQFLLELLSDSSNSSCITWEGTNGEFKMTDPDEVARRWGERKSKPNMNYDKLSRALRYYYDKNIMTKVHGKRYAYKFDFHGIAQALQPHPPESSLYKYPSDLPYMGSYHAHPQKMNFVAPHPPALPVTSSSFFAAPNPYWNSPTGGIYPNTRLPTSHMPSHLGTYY
The experiment in a line: IP-Western blot in VCaP cells.
Description: as §2, §3

A further series relates to RWPE1-ERG cells. Description: Boyden chamber basement membrane matrix invasion assay.
For another series, the system named is PC3-ERG cells. The series is described as above.
Series [9] addresses T6, TMPRSS2:ERG gene fusion product (endogenous ERG) (Homo sapiens, UniProt P11308).
T6 construct: endogenous in cells; host or cells: VCaP cells (ATCC): cultured cells, lysates or extracts, or VCaP xenograft tumours in nude mice
Description: Biotin-peptide pull-down from VCaP cell lysates, immunoblot and mass spectrometry. In kind it is binding. The following applies: 53 kDa band of pull-downs, mass spectrometry. The protocol:
Approximately 1 mg of soluble VCaP cell lysate prepared in RIPA buffer (Invitrogen) was incubated with varying amounts of biotinylated peptides for 2 hours at 4° C. HaloLink agarose beads (20 μl) were added to the peptide-lysate mixture and incubated for an additional 4 hours. Beads were then pelleted by centrifugation, washed three times in PBS-T and loaded into an SDSPAGE gel followed by Western blot analysis. Total VCaP cell lysate was loaded for positive control.
The samples were treated with SDS loading buffer supplied with 10 mM DTT for 5 min at 85° C. The proteins were alkylated by adding iodoacetamide to the final concentration of 15 mM. The samples were subjected to SDS-PAGE and the whole lanes were cut out and digested with trypsin in-gel for 2 hours. […]
The resulting spectrum files were transformed into MGF format by MSConvert software and interrogated by MASCOT 2.4 search engine using human UniProt database version 15 concatenated with reverse sequences for estimation of false discovery rate (FDR) and with a list of common contaminants. […] The peptide FDR was calculated as 2×(decoy_hits)/(target+decoy hits). Spectral counts for all detected proteins were assembled using an in-house written Python script. […]

The test system of series [10] is Ewing sarcoma cells containing the EWS-ERG fusion. It counts as cell-based. From the text:
(A) Pull down of ERG in Ewing sarcoma cells containing a EWS-ERG fusion and reduced tumor growth in xenografts models of Ewing sarcoma. (B) Tumors containing the EWS-FLI1 fusion or osteosarcomas (A204) are not affected by treatments with peptides of the disclosure. […] Similarly, invasion potential was reduced by EIP1 and EIP2 treatment in Ewing sarcoma cells containing the EWS-ERG fusion.

For series [11], the system named is cells containing the EWS-FLI1 fusion. Description: DNA damage in Ewing sarcoma cells. In kind it is cell-based.
For series [12], the target named is T3, ERG:AR interaction.
Description: as §1
The target in series [13] is T4, ERG:DNA-PKcs interaction.
Description: as §1

Description for PC3-ERG cells: (§4) Complete media was added to the lower chamber as a chemoattractant. […] Invasive cells, located on the lower side of the membranes, were stained with crystal violet, air dried and photographed. To quantify the relative number of invaded cells, colorimetric assays were performed by treating the inserts with 150 μl of 10% acetic acid (v/v) and measuring absorbance of each sample in a spectrophotometer at 560 nm (GE Healthcare).
Description for RWPE1-ERG cells: as §4

Turning to `CC(C)C[C@@H](NC(=O)[C@@H](CO)NC(=O)[C@@H](Cc1ccccc1)NC(=O)CNC(=O)[C@@H](CO)NC(=O)[C@@H](CC(C)C)NC(=O)[C@H]1CCCN1C(=O)CNC(=O)CNC(=O)[C@@H](CCCNC(=N)N)NC(=O)[C@@H](CCCCN)NC(=O)[C@@H](CCCCN)NC(=O)[C@@H](CCCNC(=N)N)NC(=O)[C@@H](CCCNC(=N)N)NC(=O)[C@@H](CCC(N)=O)NC(=O)[C@@H](CCCNC(=N)N)NC(=O)[C@@H](CCCNC(=N)N)NC(=O)[C@@H](CCCNC(=N)N)NC(=O)CN)C(=O)O` [RI-EIP2] (H-G[dR][dR][dR][dQ][dR][dR][dK][dK][dR]GG[dP][dL][dS]G[dF][dS][dL]-OH), the “tumor growth of VCaP xenografts” value in series [1] was “significantly delayed tumor growth”. At ERG [2], this compound showed a Kd of 1.28 µM.

For the compound “Ac-LPPELFT-NH2 [7LT-4E, Ac- LPPELFT -NH2]”, the Kd on ERG [3] stood at 3.6 µM.

In turn, Ac-LPPYLF-NH2 [6LF-A, Ac- LPPYLF -NH2] registered a Kd at ERG [4] of more than 100 µM.

FTFGSLP [FTFGSLP] returned a Kd on ERG [2] of 3.9 µM.

As for H-PPYLFT-NH2 [6PT-N, H2N- PPYLFT -NH2], the Kd at ERG [4] turned out to be 11.5 µM.

LPPALFT [muEIP1, LPPALFT]: the “disruption of direct ERG:AR interaction” value at ERG:AR interaction [5] is on record as “not”. For the same compound, the “disruption of direct ERG:DNA-PKcs interaction” value on ERG:DNA-PKcs interaction [6] is reported as “not”. Moreover, the “binding to ERG” value at ERG [2] is “failed to bind”.

Take “LPPTFLY [Scr, LPPTFLY, reference compound]”: the “binding to ERG” value at ERG [2] is recorded as “failed to bind”.

As to LPPYLFTGGRKKRRQRRRG [TAT-EIP1], the “block of ERG:AR interaction in VCaP cells” value at ERG:AR interaction [7] is given as “significantly blocked”. Also, the “block of ERG:DNA-PKcs interaction in VCaP cells” value on ERG:DNA-PKcs interaction [8] is reported as “significantly blocked”. The “invasion of RWPE1-ERG cells” value with RWPE1-ERG cells is listed as “significantly attenuated”. In addition, in the series with PC3-ERG cells, the “PC3 cell invasion driven by overexpression of ERG” value is reported as “inhibited”.

LRFGTLP [LRFGTLP] yielded an equilibrium dissociation constant (Kd) at ERG [2] of 7.9 µM.

In the case of “LSAGSAP [muEIP2, LSAGSAP, reference compound]”, the “spectral counts for the ERG peptide NTGGAAFIFPNTSVYPEATQR” value in series [9] came out at 2 spectral counts. Further, on ERG [2], the “binding to ERG” value was “failed to bind”.

On to LSFGSLP [EIP2, LSFGSLP], for which, in [10], the “DNA damage caused by oncogenic ERG (EWS-ERG fusion)” value is reported as “reduce DNA damage” and the invasion potential result is given as “reduced”. Besides, the “DNA damage in cells containing the EWS-FLI1 fusion” value in series [11] was “no effect”. Besides, the “disruption of direct ERG:AR interaction” value on ERG:AR interaction [12] is “disrupted”. Besides, the “disruption of direct ERG:DNA-PKcs interaction” value at ERG:DNA-PKcs interaction [13] is recorded as “disrupted”.

With LSFGSLPGGRKKRRQRRRG [TAT-EIP2], the “block of ERG:AR interaction in VCaP cells” value at ERG:AR interaction [7] is listed as “significantly blocked”. The “block of ERG:DNA-PKcs interaction in VCaP cells” value at ERG:DNA-PKcs interaction [8] was “significantly blocked”. In the series with RWPE1-ERG cells, the “invasion of RWPE1-ERG cells” value is given as “significantly attenuated”. Besides, the “PC3 cell invasion driven by overexpression of ERG” value with PC3-ERG cells is “inhibited”.
